The test system of one data set is MV4-11 cells. The data set is described as follows: MV4-11 Cell Cytotoxicity Assay (CellTiter-Blue, 72 h). Type of data set: cell-based, human. The note with it: Homo sapiens, MV4-11; MV-4-11 cells. The method in brief: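 Cells seeded 24 h before treatment, then exposed 72 h at 37° C, 5% CO2 to inhibitors in triplicate, top concentration 50 μM with 1:2 serial dilutions (0.5% DMSO vehicle). Viability read by CellTiter-Blue fluorescence at 560/590 nm after 1 h.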

The next data set concerns glutathione (GSH). The data set is described as follows: Reactivity Profiling with Glutathione (GSH), half-life by HPLC. The settings on record: 5 mM glutathione (GSH) in IMDM with 10% FBS.
Data set [1] relates to normal human fibroblast (NHF) cells. The data set is described as follows: NHF Cell Cytotoxicity Assay (CellTiter-Blue, 72 h), off-target effects. The settings on record: Homo sapiens, Fibroblast; pooled NHF cells. In kind it is cell-based. The method in brief:
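Normal human fibroblasts (1×10^4/well, 10% FBS medium) were treated after 24 h with inhibitor at 0.097656-50 μM for 72 h at 37° C. Viability was read by CellTiter-Blue fluorescence (560/590 nm), normalized to DMSO control, and IC50 obtained from a variable-slope log(inhibitor)-response fit of four replicates.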

Consider `C#CCOc1cc(C(=O)O)ccc1N(Cc1cc(C2CC2)cc(C2CC2)c1)C(=O)CN(Cc1ccc(F)cc1Cl)S(=O)(=O)c1c(F)c(F)c(F)c(F)c1F` [Compound 1258, 4-(2-(N-(2-chloro-4-fluorobenzyl)-(2,3,4,5,6-pentafluorophenyl)sulfon-amido)-N-(3,5-dicyclopropylbenzyl)acetamido)-3-(prop-2-yn-1-yloxy)benzoic acid], for which the half-maximal inhibitory concentration (IC50) in the data set on MV4-11 cells is 0.01 to 316 nM; in data set [1], 10000 to 20000 nM. The half-life at 25 μM in the data set on glutathione (GSH) was in the range of 0.00167 to 2.37 h.

In the case of `O=C(O)c1ccc(N(Cc2cc(C3CC3)cc(C3CC3)c2)C(=O)CN(CCc2ccc(F)cc2Cl)S(=O)(=O)c2c(F)c(F)c(F)c(F)c2F)c(OC2CC2)c1` [Compound 1242, 4-(2-(N-(2-chloro-4-fluorophenethyl)-(2,3,4,5,6-pentafluorophenyl)sulfon-amido)-N-(3,5-dicyclopropylbenzyl)acetamido)-3-cyclopropoxybenzoic acid], the IC50 in the data set with MV4-11 cells is 316 to 1000 nM; in data set [1], 10000 to 20000 nM. In the data set on glutathione (GSH), this compound displayed a half-life at 25 μM of 0.00167 to 2.37 h.

As for `COc1cc(C(=O)O)ccc1N(Cc1cc(C2CC2)cc(C2CC2)c1)C(=O)CN(Cc1cnccc1C(F)(F)F)S(=O)(=O)c1c(F)c(F)c(F)c(F)c1F` [Compound 1146, 4-(N-(3,5-dicyclopropylbenzyl)-2-(N-((4-(trifluoromethyl)pyridin-3-yl)methyl)-(2,3,4,5,6-pentafluoro-phenyl)sulfonamido)acetamido)-3-methoxybenzoic acid], the IC50 in the data set on MV4-11 cells lay within 316 to 1000 nM; in data set [1], 1 to 10000 nM. In the data set on glutathione (GSH), this compound had a half-life at 25 μM of 0.00167 to 2.37 h.

For the compound `CCOc1cc(C(=O)O)ccc1N(Cc1cc(C2CC2)cc(C(C)(C)C)c1)C(=O)CN(Cc1cnccc1Cl)S(=O)(=O)c1c(F)c(F)c(F)c(F)c1F` [Compound 1277, 4-(N-(3-(tert-butyl)-5-cyclopropylbenzyl)-2-((N-((4-chloropyridin-3-yl)methyl)-2,3,4,5,6-pentafluorophenyl)sulfonamido)acetamido)-3-ethoxybenzoic acid], the results for the IC50 (in the data set on MV4-11 cells; in data set [1]) were 0.01 to 316 nM and 1 to 10000 nM, respectively. In the data set on glutathione (GSH), this compound showed a half-life at 25 μM of 0.00167 to 2.37 h.

Regarding `Cc1cc(C(=O)O)ccc1N(Cc1cc(C2CC2)cc(C2CC2)c1)C(=O)CN(Cc1cnccc1C(F)(F)F)S(=O)(=O)c1c(F)c(F)c(F)c(F)c1F` [Compound 1216, 4-(N-(3,5-dicyclopropylbenzyl)-2-(N-((4-(trifluoromethyl)pyridin-3-yl)methyl)-(2,3,4,5,6-pentafluoro-phenyl)sulfonamido)acetamido)-3-methylbenzoic acid], the IC50 in the data set on MV4-11 cells fell in the range of 0.01 to 316 nM; in data set [1] it was 1 to 10000 nM. In the data set on glutathione (GSH), this compound gave a half-life at 25 μM of 0.00167 to 2.37 h.

On to `CN(C)c1cc(C(=O)O)ccc1N(Cc1cc(C2CC2)cc(C2CC2)c1)C(=O)CN(Cc1ccccc1C(F)(F)F)S(=O)(=O)c1c(F)c(F)c(F)c(F)c1F` [Compound 1215, 4-(N-(3,5-dicyclopropylbenzyl)-2-(N-(2-(trifluoromethyl)benzyl)-(2,3,4,5,6-pentafluoro-phenyl)sulfonamido)acetamido)-3-(dimethylamino) benzoic acid], for which the IC50 is 0.01 to 316 nM in the data set with MV4-11 cells and 20000 to 30000 nM in data set [1]. The compound further registered a half-life at 25 μM in the data set with glutathione (GSH) of 4.12 to 9.23 h.

As for `CC(C)(C)c1cc(CN(C(=O)CN(Cc2ccccc2F)S(=O)(=O)c2c(F)c(F)c(F)c(F)c2F)c2ccc(C(=O)O)cc2C2CC2)cc(C2CC2)c1` [Compound 1091, 4-(N-(3-(tert-butyl)-5-cyclopropylbenzyl)-2-(N-(2-fluorobenzyl)-(2,3,4,5,6-pentafluoro-phenyl)sulfonamido)acetamido)-3-cyclopropylbenzoic acid], the IC50 in the data set on MV4-11 cells lay within 0.01 to 316 nM; in data set [1], 1 to 10000 nM. In the data set on glutathione (GSH), this compound yielded a half-life at 25 μM of 4.12 to 9.23 h.

Consider `COc1cc(C(=O)O)ccc1N(Cc1cc(C2CC2)cc(C(C)(C)C)c1)C(=O)CN(Cc1cnccc1C(F)(F)F)S(=O)(=O)c1c(F)c(F)c(F)c(F)c1F` [Compound 1116, 4-(N-(3-(tert-butyl)-5-cyclopropylbenzyl)-2-(N-((4-(trifluoromethyl)pyridin-3-yl)methyl)-(2,3,4,5,6-pentafluoro-phenyl)sulfonamido)acetamido)-3-methoxybenzoic acid], for which the IC50 in the data set on MV4-11 cells was in the range of 0.01 to 316 nM; in data set [1], 10000 to 20000 nM. Also, the half-life at 25 μM in the data set with glutathione (GSH) was 2.37 to 4.12 h.

`COc1cc(C(=O)O)ccc1N(Cc1cc(C2CC2)cc(C(C)(C)C)c1)C(=O)CN(Cc1ccccc1C(F)(F)F)S(=O)(=O)c1c(F)c(F)c(F)c(F)c1F` [Compound 1087, 4-(N-(3-(tert-butyl)-5-cyclopropylbenzyl)-2-(N-(2-(trifluoromethyl)benzyl)-(2,3,4,5,6-pentafluoro-phenyl)sulfonamido)acetamido)-3-methoxybenzoic acid]: the IC50 with MV4-11 cells lay within 0.01 to 316 nM; in data set [1], 20000 to 30000 nM. Also, the half-life at 25 μM with glutathione (GSH) was 4.12 to 9.23 h.

For the compound `O=C(O)c1ccc(N(Cc2cc(C3CC3)cc(C3CC3)c2)C(=O)CN(Cc2ccccc2C(F)(F)F)S(=O)(=O)c2c(F)c(F)c(F)c(F)c2F)c(OC2CC2)c1` [Compound 1141], the IC50 in the data set with MV4-11 cells is 0.01 to 316 nM; in data set [1], 20000 to 30000 nM. In the data set with glutathione (GSH), this compound displayed a half-life at 25 μM of 4.12 to 9.23 h.

Consider `Cc1cc(C(=O)O)ccc1N(Cc1cc(C2CC2)cc(C(C)(C)C)c1)C(=O)CN(Cc1cnccc1C(F)(F)F)S(=O)(=O)c1c(F)c(F)c(F)c(F)c1F` [Compound 1251, 4-(N-(3-(tert-butyl)-5-cyclopropylbenzyl)-2-(N-((4-(trifluoromethyl)pyridin-3-yl)methyl)-(2,3,4,5,6-pentafluoro-phenyl)sulfonamido)acetamido)-3-methylbenzoic acid], for which the IC50 in the data set with MV4-11 cells lay in the range of 0.01 to 316 nM; in data set [1], 1 to 10000 nM. Moreover, the half-life at 25 μM in the data set on glutathione (GSH) was in the range of 0.00167 to 2.37 h.

For the compound `O=C(O)c1ccc(N(Cc2cc(C3CC3)cc(C3CC3)c2)C(=O)CN(Cc2c(F)c(F)c(F)c(F)c2F)S(=O)(=O)c2c(F)c(F)c(F)c(F)c2F)c(C2CC2)c1` [Compound 1196, 3-cyclopropyl-4-(N-(3,5-dicyclopropylbenzyl)-2-(N-((perfluorophenyl)methyl)-(2,3,4,5,6-pentafluoro-phenyl)sulfonamido)acetamido)benzoic acid], the IC50 lay in the range of 0.01 to 316 nM in the data set on MV4-11 cells and 1 to 10000 nM in data set [1]. In addition, in the data set with glutathione (GSH), the half-life at 25 μM is 9.23 to 1670 h.

With `O=C(O)c1ccc(N(Cc2cc(C3CC3)cc(C3CC3)c2)C(=O)CN(Cc2c(F)cc(F)cc2F)S(=O)(=O)c2c(F)c(F)c(F)c(F)c2F)c(C2CC2)c1` [Compound 1195, 3-cyclopropyl-4-(N-(3,5-dicyclopropylbenzyl)-2-(N-(2,4,6-trifluorobenzyl)-(2,3,4,5,6-pentafluoro-phenyl)sulfonamido)acetamido)benzoic acid], the half-maximal inhibitory concentration (IC50) in the data set with MV4-11 cells lay in the range of 0.01 to 316 nM; in data set [1], 1 to 10000 nM. This compound registered a half-life at 25 μM with glutathione (GSH) of 2.37 to 4.12 h.

Turning to `COc1cc(C(=O)O)ccc1N(Cc1cc(C2CC2)cc(C(C)(C)C)c1)C(=O)CN(Cc1ccncc1F)S(=O)(=O)c1c(F)c(F)c(F)c(F)c1F` [Compound 1078, 4-(N-(3-(tert-butyl)-5-cyclopropylbenzyl)-2-(N-((3-fluoropyridin-4-yl)methyl)-(2,3,4,5,6-pentafluoro-phenyl)sulfonamido)acetamido)-3-methoxybenzoic acid], the IC50 in the data set on MV4-11 cells lay in the range of 316 to 1000 nM; in data set [1] it was 1 to 10000 nM. For the same compound, the half-life at 25 μM in the data set with glutathione (GSH) was in the range of 0.00167 to 2.37 h.

As for `CC(C)(C)c1cc(CN(C(=O)CN(Cc2c(F)cccc2Cl)S(=O)(=O)c2c(F)c(F)c(F)c(F)c2F)c2ccc(C(=O)O)cc2OC2CC2)cc(C2CC2)c1` [Compound 1238, 4-(N-(3-(tert-butyl)-5-cyclopropylbenzyl)-2-(N-(2-chloro-6-fluorobenzyl)-(2,3,4,5,6-pentafluorophenyl)sulfon-amido)acetamido)-3-cyclopropoxybenzoic acid], the IC50 in the data set on MV4-11 cells lay within 0.01 to 316 nM; in data set [1] it was 10000 to 20000 nM. This compound also had a half-life at 25 μM in the data set on glutathione (GSH) of 9.23 to 1670 h.

On to `N#Cc1ccccc1CN(CC(=O)N(Cc1cc(C2CC2)cc(C2CC2)c1)c1ccc(C(=O)O)cc1OC1CCCC1)S(=O)(=O)c1c(F)c(F)c(F)c(F)c1F` [Compound 1279, 4-(2-((N-(2-cyanobenzyl)-2,3,4,5,6-pentafluorophenyl)sulfonamido)-N-(3,5-dicyclopropylbenzyl)acetamido)-3-(cyclopentyloxy)benzoic acid], for which the IC50 is 0.01 to 316 nM with MV4-11 cells and 10000 to 20000 nM in data set [1]. Besides, the half-life at 25 μM in the data set with glutathione (GSH) lay within 4.12 to 9.23 h.

As to `O=C(O)c1ccc(N(Cc2cc(C3CC3)cc(N3CCCC3)c2)C(=O)CN(Cc2ccc(F)cc2Cl)S(=O)(=O)c2c(F)c(F)c(F)c(F)c2F)c(OC2CC2)c1` [Compound 1192, 4-(2-(N-(2-chloro-4-fluorobenzyl)-(2,3,4,5,6-pentafluorophenyl)sulfon-amido)-N-(3-cyclopropyl-5-(pyrrolidin-1-yl)benzyl)acetamido)-3-cyclopropoxybenzoic acid], the results for the IC50 (in the data set on MV4-11 cells; in data set [1]) were 316 to 1000 nM and 10000 to 20000 nM, respectively. In the data set with glutathione (GSH), the half-life at 25 μM fell in the range of 9.23 to 1670 h.

With `Cc1cc(C(=O)O)ccc1N(Cc1cc(C2CC2)cc(C2CC2)c1)C(=O)CN(Cc1c(F)cc(F)cc1F)S(=O)(=O)c1c(F)c(F)c(F)c(F)c1F` [Compound 1218, 4-(N-(3,5-dicyclopropylbenzyl)-2-(N-(2,4,6-trifluorobenzyl)-(2,3,4,5,6-pentafluoro-phenyl)sulfonamido)acetamido)-3-methylbenzoic acid], the IC50 was in the range of 0.01 to 316 nM in the data set with MV4-11 cells and 1 to 10000 nM in data set [1]. The compound further showed a half-life at 25 μM in the data set with glutathione (GSH) of 0.00167 to 2.37 h.

The record behind these values is patent publication US20230159445A1, “STAT INHIBITORY COMPOUNDS AND COMPOSITIONS” (JANPIX LIMITED, priority 2020, published 2023).
